# Assay results: the supplement of paper PMC10307832
# Experiments:
# Experiment in all cases: relative viability (nuclei count vs DMSO), 5 days (fraction); higher = more cells survive
# Carboplatin + Tozasertib = compound: C1CC(C1)(C(=O)O)C(=O)O.[NH2-].[NH2-].[Pt+2] [Carboplatin] + Cc1cc(Nc2cc(N3CCN(C)CC3)nc(Sc3ccc(NC(=O)C4CC4)cc3)n2)n[nH]1 [Tozasertib] (partner 0.1 µM)
# In short: (§1)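 Nuclei were stained with Hoechst during a one-step fixation (final 0.05% Triton X-100, 1% formaldehyde, 1 ug/ml Hoechst) carried out 5 days after dosing, then counted on 4× images. The cells, lung cancer lines in 1536-well plates, had been dosed by pin tool the day after seeding with one drug alone or a fixed anchor-drug dose plus five library-drug doses (not always all listed) in √10 steps. Relative viability is the nuclei count in treated wells divided by that in vehicle wells, and each value is the median of duplicate plates.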
# GSK126 + Luminespib = compound: CC[C@H](C)N1C=C(C2=C(C=C(C=C21)C3=CN=C(C=C3)N4CCNCC4)C(=O)NCC5=C(C=C(NC5=O)C)C)C [GSK126] + CCNC(=O)c1noc(-c2cc(C(C)C)c(O)cc2O)c1-c1ccc(CN2CCOCC2)cc1 [Luminespib] (partner 0.01 µM)
# In short: as §1
# GSK126 + Tozasertib = compound: CC[C@H](C)N1C=C(C2=C(C=C(C=C21)C3=CN=C(C=C3)N4CCNCC4)C(=O)NCC5=C(C=C(NC5=O)C)C)C [GSK126] + Cc1cc(Nc2cc(N3CCN(C)CC3)nc(Sc3ccc(NC(=O)C4CC4)cc3)n2)n[nH]1 [Tozasertib] (partner 0.1 µM)
# In short: as §1
# MLN4924 + AZD7762 = compound: NS(=O)(=O)OC[C@@H]1C[C@@H](n2ccc3c(N[C@H]4CCc5ccccc54)ncnc32)C[C@@H]1O [MLN4924] + NC(=O)Nc1cc(-c2cccc(F)c2)sc1C(=O)N[C@H]1CCCNC1 [AZD7762] (partner 0.2 µM)
# In short: as §1
Cell Line,relative viability (Carboplatin + Tozasertib; first compound 0.08 µM),relative viability (Carboplatin + Tozasertib; first compound 0.253 µM),relative viability (Carboplatin + Tozasertib; first compound 0.8 µM),relative viability (Carboplatin + Tozasertib; first compound 2.53 µM),relative viability (Carboplatin + Tozasertib; first compound 8 µM),relative viability (GSK126 + Luminespib; first compound 0.08 µM),relative viability (GSK126 + Luminespib; first compound 0.253 µM),relative viability (GSK126 + Luminespib; first compound 0.8 µM),relative viability (GSK126 + Luminespib; first compound 2.53 µM),relative viability (GSK126 + Luminespib; first compound 8 µM),relative viability (GSK126 + Tozasertib; first compound 0.08 µM),relative viability (GSK126 + Tozasertib; first compound 0.253 µM),relative viability (GSK126 + Tozasertib; first compound 0.8 µM),relative viability (GSK126 + Tozasertib; first compound 2.53 µM),relative viability (GSK126 + Tozasertib; first compound 8 µM),relative viability (MLN4924 + AZD7762; first compound 0.04 µM),relative viability (MLN4924 + AZD7762; first compound 0.1265 µM),relative viability (MLN4924 + AZD7762; first compound 0.4 µM),relative viability (MLN4924 + AZD7762; first compound 1.265 µM),relative viability (MLN4924 + AZD7762; first compound 4 µM)
NCI-H3122,0.371,0.336,0.381,0.329,0.411,0.0614,0.0957,0.0787,0.0846,0.103,0.423,0.393,0.367,0.33,0.344,0.916,0.485,0.229,0.132,0.105
201T,0.988,0.933,0.985,0.942,0.89,1.01,1.05,1.08,1.12,1.2,0.893,1.05,0.944,0.944,0.836,0.822,0.624,0.391,0.235,0.242
RERF-LC-KJ,0.553,0.471,0.483,0.406,0.386,1.22,1.09,1.31,1.3,1.16,0.562,0.449,0.489,0.485,0.357,0.941,0.738,0.256,0.182,0.253
ChaGo-K-1,0.231,0.224,0.215,0.213,0.192,0.602,0.675,0.556,0.769,0.397,0.237,0.238,0.216,0.233,0.201,0.861,0.701,0.508,0.193,0.159
NCI-H1734,0.289,0.295,0.31,0.242,0.26,0.179,0.231,0.117,0.176,0.213,0.322,0.235,0.295,0.224,0.283,0.863,0.641,0.204,0.104,0.111
NCI-H1651,0.89,0.668,0.593,0.508,0.305,0.966,0.948,0.766,0.732,0.817,0.717,0.728,0.864,0.57,0.537,0.495,0.53,0.47,0.436,0.158
PC-14,0.553,0.582,0.443,0.314,0.202,0.163,0.144,0.174,0.155,0.114,0.614,0.674,0.639,0.535,0.403,0.335,0.405,0.347,0.166,0.127
